Test results as given in article PMC6976303 (Biochemistry, 2019).

Biological target: T1, human ABHD14B (Homo sapiens, UniProt Q96IU4)
T1 sequence (Q96IU4 1-210): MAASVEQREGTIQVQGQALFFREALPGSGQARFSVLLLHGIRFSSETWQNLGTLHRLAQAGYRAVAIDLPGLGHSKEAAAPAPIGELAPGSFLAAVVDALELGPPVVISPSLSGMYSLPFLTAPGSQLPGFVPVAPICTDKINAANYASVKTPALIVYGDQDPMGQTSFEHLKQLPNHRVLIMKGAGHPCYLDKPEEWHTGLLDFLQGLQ
Test: thermal shift assay, Sypro-Orange
Format: binding
Details: 10 mM ligand, 10 μM enzyme, 10 mM Tris pH 8

Structure (SMILES)	leftward (lower temperature) thermal shift
CC(C)(COP(=O)(O)OP(=O)(O)OC[C@H]1O[C@@H](n2cnc3c(N)ncnc32)[C@H](O)[C@@H]1OP(=O)(O)O)[C@@H](O)C(=O)NCCC(=O)NCCS [CoA]	~ 2 °C
CC(=O)SCCNC(=O)CCNC(=O)[C@H](O)C(C)(C)COP(=O)(O)OP(=O)(O)OC[C@H]1O[C@@H](n2cnc3c(N)ncnc32)[C@H](O)[C@@H]1OP(=O)(O)O [acetyl-CoA]	~ 2 °C
